Test system: CT26 syngeneic model (subcutaneous CT26 tumors)
Assay: In vivo efficacy study testing combination of sur301 (sADC×25) with gemcitabine in the CT26 syngeneic model
Parameters: species or system female BALB/c mice
Conditions: Gemcitabine 80 mg/kg i.p. q3d×4 (Days 1, 4, 7, 10), single agent, animals of n=10/group
Description: On the day of implant, cultured CT26 cells were harvested during log phase growth and resuspended in PBS at a concentration of 3×10^6 cells/mL. Tumors were initiated by subcutaneously implanting 3×10^5 CT26 cells (0.1 mL suspension) into the right flank of each test animal. Tumors were monitored as their volumes approached the target range of 80-120 mm^3. Tumor were measured in two dimensions using calipers, and volume was calculated using the formula:
Tumor Volume (mm^3)=w2×l/2
where w=width and l=length, in mm, of the tumor. Tumor weight may be estimated with the assumption that 1 mg is equivalent to 1 mm3 of tumor volume.
Fifteen days after tumor cell implantation, on Day 1 of the study, animals were sorted into groups (n=10/group) with individual tumor volumes of 75 to 144 mm^3, and group mean tumor volumes of 104-106 mm^3.
All doses were administered intraperitoneally (i.p.). The dosing volume was 0.2 mL per 20 grams of body weight (10 mL/kg), and was scaled to the body weight of each individual animal.
Gemcitabine was administered at 80 mg/kg q3d×4 which corresponded to Days 1, 4, 7 and 10.
The antibody component of ADC×25 specifically binds human CD25. […]
Tumors were measured using calipers twice per week, and each animal was euthanized when its tumor reached the endpoint volume of 2000 mm^3 or at the end of the study (Day 56), whichever came first.
Response Table Criteria: • Treatment may cause partial regression (PR) or complete regression (CR) of the tumor in an animal. • In a PR response, the tumor volume is 50% or less of its Day 1 volume for three consecutive measurements during the course of the study, and equal to or greater than 13.5 mm3 for one or more of these three measurements. • In a CR response, the tumor volume is less than 13.5 mm3 for three consecutive measurements during the study. • Any animal with a CR response at the end of the study was additionally classified as a tumor-free survivor (TFS). • Animals were scored only once during the study for a PR or CR event and only as CR if both PR and CR criteria were satisfied. […]

Nc1ccn([C@@H]2O[C@H](CO)[C@@H](O)C2(F)F)c(=O)n1 [Gemcitabine]
0: CR (complete regression) | PR (partial regression) | TFS (tumor-free survivor) (end of study Day 56)

Source: patent publication US20230132256A1, “COMBINATION THERAPY” (ADC THERAPEUTICS SA, priority 2018, published 2023)
